# Read-outs that look alike come from different tables or passages of the source.
# Key:
# [1] = tested on: Dld1 colon carcinoma cells; experiment: Antiproliferative activity against Dld1 colon carcinoma cells (nuclei count); assay type: cell-based, human; details: Homo sapiens, DLD-1; colon carcinoma cells, 5 nM-90 microM, nuclei count; read-out: Dld1 IC50
# Procedure: (§1) For examination of cell line-specific cytotoxicity, compounds were applied to human colorectal cancer cells (HCT116, denoted (1); SW480, denoted (2); Dld-1, denoted (3)) and human fibroblasts (HS-68, denoted (4)), cultured in Mc Coy's ((1)) and Dulbecco's Modified Eagles Medium ((2)-(4)), supplemented with 10% ((1)-(3)) and 20% ((4)) fetal calf serum and 1% penicillin/streptomycin. Cells were grown in T75 flasks at 37° C., 5% CO2 and trypsinized when 60-80% confluent by adding 2 ml of 0.25% Trypsin-EDTA (ethylenediaminetetraacetic acid) solution. Cells were then re-suspended into culture medium yielding approx. 750 cells, suspended in 45 microl medium, were plated into each well of a black 384-well plate for fluorescence imaging experiments. 24-36 hr later 5 microl compound solution (100 microM compound dissolved in ultra pure water containing 1% DMSO (dimethylsulfoxide)), were added to achieve a final concentration of 10 microM and were incubated for at least 72 hr. Compound incubation was terminated by (a) fixation and (b) permeabilisation of cells, followed by (c) fluorescence labeling of cell nuclei for cytometric quantification or by immunocytochemistry for microscopic evaluation of cell morphology. […] Solutions were incubated for 15 (a,b) and 30 min (c) in the dark at room temperature. Cells were washed twice between each step with 30 microl PBS. The assay system was miniaturized and adapted to automated workflow using liquid-handling robotics.
# (§2) Cell line-specific cytotoxicity was quantified by counting the number of Hoechst labeled nuclei per well of a 384-well plate using a plate cytometer. Data obtained with the cytometer was analysed using standard data analysis software.
# (§3) The examination of the antiproliferative activity against human colon carcinoma cells Dld1, HCT116 and SW480 was carried out in analogy to the procedure carried out for HS68. The respective compound applied in increasing concentrations yielding final concentrations per well of 5 nM-90 microM.
# [2] = tested on: SW480 colon carcinoma cells; experiment: Antiproliferative activity against SW480 colon carcinoma cells (nuclei count); assay type: cell-based; details: Homo sapiens, 5 nM-90 microM
# Procedure: as §1, §2, §3
# [3] = Cytotoxicity in Hek293T (CellTiterGlo); assay type: cell-based; details: human, Hek293T cells, 24 h after compound addition, 5 nM-100 microM, read-out: Hek293T IC50 (cytotoxic activity)
# Procedure: (§4) For examination of cytotoxicity in these cancer cell lines the commercial available CellTiterGlo® Reagent (Promega, USA) was used according to the manufactor. Compounds were applied to Hek293T (denoted (a)) or HepG2 (denoted (b)), cultured in Dulbecco's Modified Eagles Medium, supplemented with 10% fetal calf serum and 1% penicillin/streptomycin. Cells were grown in T75 flasks at 37° C., 5% CO2 and trypsinized when 60-80% confluent by adding 2 ml of 0.25% Trypsin-EDTA solution. Cells were then re-suspended into culture medium yielding approx. 4000 cells (a) or 4500 cells (b), suspended in 30 microl medium. 48 h after cell seeding, compounds were added to yield the desired final concentrations. 24 h after compound addition cytotoxicity was evaluated. For this purpose the media was removed and CellTiterGlo® was added according to the manufactors manual. In this assay the luciferase emission readout is directly correlated with the cellular amount of ATP, low luciferase emission thus is reflecting cytotoxicity of a compound.
# [4] = Cytotoxicity in HepG2 (CellTiterGlo); assay type: cell-based; details: human, HepG2 cells, 24 h after compound addition, 5 nM-100 microM, read-out: HepG2 IC50 (cytotoxic activity)
# Procedure: as §4
# Wnt pathway (Wnt1/Frzd8) = experiment: Wnt signaling pathway reporter gene assay (6xTCF-luciferase, Wnt1/Frizzled 8/LRP6 stimulated Hek293T cells); assay type: cell-based, mouse (Wnt1, human (LRP6); details: Homo sapiens, HEK-293T, Hek293T, 6xTCF-luciferase reporter, 24 h incubation, 5 nM-100 microM, read-out: Wnt1/Frzd8 IC50 (Wnt pathway inhibitory activity)
# Text: To screen for small-molecule modulators of the Wnt signaling pathway, a reporter gene based assay describing the modulation of the TCF4 transcription factor was used. […]
# [5] = tested on: human fibroblasts (HS-68); experiment: Cell line specific cytotoxicity, normal cells HS68 (nuclei count); assay type: cell-based; details: at least 72 hr incubation, Hoechst nuclei count, read-out: HS68 IC50 (influence on normal cells)
# Procedure: as §1, §2
# Identified hits were further evaluated by visual inspection of fluorescence micrographs obtained from imaging using a conventional fluorescence microscope.
# [6] = tested on: HCT116 colon carcinoma cells; experiment: Antiproliferative activity against HCT116 colon carcinoma cells (nuclei count); assay type: cell-based, human; details: Homo sapiens, HCT-116; colon carcinoma cells, 5 nM-90 microM, nuclei count; read-out: HCT116 IC50
# Procedure: as §1, §2, §3
Structure (SMILES),IC50 [1] [nM],IC50 [2] [nM],IC50 at 24 h [3] [µM],IC50 at 24 h [4] [µM],IC50 (Wnt pathway (Wnt1/Frzd8)) [nM],IC50 [5] [nM],IC50 [6] [nM],IC50 (Wnt pathway (Wnt1/Frzd8); 24 h) [nM]
"C=CCOc1c(Br)cc(C2C(C#N)=C(N)Oc3cc4c(cc32)OCO4)cc1OC (centres unmarked) [(41), 8-(4-Allyloxy-3-bromo-5-methoxy-phenyl)-6-amino-8H-[1,3]dioxolo[4,5-g]chromene-7-carbonitrile]",470,618,> 90,> 90,45,641,551,
"C=CCOc1c(Br)cc(C2C(C(=O)OCC)=C(N)Oc3cc4c(cc32)OCO4)cc1OC (centres unmarked) [(42), 8-(4-Allyloxy-3-bromo-5-methoxy-phenyl)-6-amino-8H-[1,3]dioxolo[4,5-g]chromene-7-carboxylic acid ethyl ester]",293,343,> 90,> 90,,469,250,55

# Reference: patent US20130296344A1, “CHROMENE DERIVATIVES AND THEIR ANALOGA AS WNT PATHWAY ANTAGONISTS” (Ruprecht-Karls-Universitat Heidelberg, priority 2010, published 2013)
